Values of other authors, collected in US20180110792A1, “COMPOSITIONS AND METHODS FOR INHIBITING GLYCATION REACTIONS” (Access Business Group International LLC, priority 2016, published 2018).

Conditions: human, in vivo

For `N=C(N)NN` [aminoguanadine], the “adverse effects in clinical trials” value is listed as “demonstrated adverse effects in clinical trials”.
